Data: US20220202912A1, “Polypeptides in Preparation of Drugs for Treatment or Prevention of Rheumatoid Arthritis” (priority 2011, published 2022)
Where no end group is shown, it is not given here.

Legend:
IL-1β = IL-1β production by mouse peritoneal macrophages (LPS, ELISA); format: cell-based, C57BL/6 mice; details: LPS 5 μg/mL, 48 h
Procedure: In the test, mice are divided into […], namely a blank control group, a lipopolysaccharide (LPS) model group, a dexamethasone group, and mPEG-SC20k-HM-3 groups at different doses (0.56, 1.12, 2.25, 4.50, 9.00 μmol/L).
(1) IL-1 production: mice are intraperitoneally injected with 1 mL of broth medium (containing 6% of starch). After three days, mouse peritoneal macrophages are taken aseptically and washed twice with RPMI 1640 medium, and the cell concentration is adjusted to 2×10^6 cells/mL. The cells are injected into a 24-well culture plate, 1 mL per well, and the cells are incubated in a cell incubator for 3 h, and vibrated once every 30 min to make the cells fully adhere. Then the cells are washed twice with culture solution to remove non-adherent cells, are cultured continuously for 48 h after administration, and are centrifuged at 1000 r for 15 min. The supernatant is collected as a sample with IL-1β to be tested. (2) Determination of IL-1 content: various solutions are prepared; tested samples and standard substances with different concentrations (100 μL/well) are added into the corresponding wells, reaction wells are sealed with plate-sealing adhesive tape, and incubation is performed at 37° C. for 90 min; the plate is washed four times; biotinylated antibody working solution (100 μL/well) is added, the reaction wells are sealed with plate-sealing adhesive tape, and incubation is performed at 37° C. for 60 min; the plate is washed four times; enzyme conjugate working solution (100 μL/well) is added, the reaction wells are sealed with plate-sealing adhesive tape, and incubation is performed at 37° C. for 30 min; the plate is washed four times; chromogenic reagent (100 μL/well) is added, and incubation is performed at 37° C. for 10-20 min in the absence of light; stop solution (100 μL/well) is added, and the OD 450 nm absorbance is measured immediately after uniform mixing (within 5 min).

IL-6 = assay: immunohistochemistry of IL-6 in spleen and thymus, CIA transgenic TNF-luc mice; format: in vivo, BALB/c transgenic TNF-luc mice; details: Adalimumab 8 mg/kg, mPEG-SC20k-HM-3 20 mg/kg
Procedure: Determining criteria: The experimental results are determined based on the proportion of positive cells in all tissue cells and the staining intensity of positive cells: A: scoring is performed based on the number of chromogenic cells, 1 point is given when the proportion of the number of positive cells is less than ⅓, 2 points are given when the proportion of the number of positive cells is ⅓-⅔, and 3 points are given when the proportion of the number of positive cells is greater than or equal to ⅔. B: Based on the color depth of cells, 0 point is given when no cells have positive reaction, 1 point is given when cells are light yellow, 2 points are given when the cells are light brown, and 3 points are given when the cells are dark brown. Point product=A×B. The result is expressed in point product.

[1] = tested on: λ-carrageenan acute inflammation; assay: acute toe swelling in carrageenan-induced transgenic TNF-luc mice; format: in vivo, BALB/c transgenic TNF-luc mice; details: Adalimumab 8 mg/kg, mPEG-SC20k-HM-3 20 mg/kg sc
Procedure: Before modeling, 8 animals are randomly divided into 4 groups (n=2), a normal group, a model group, a positive drug group and a test treatment group. One hour before modeling, the normal group and the model group are hypodermically injected with normal saline (0.2 mL/20 g of body weight) respectively; the positive drug group is hypodermically injected with Adalimumab (8 mg/kg of body weight), 15 d/time, once; and the test treatment group is hypodermically injected with mPEG-SC20k-HM-3 (20 mg/kg of body weight), 2 d/time, twice. The initial ankle width, foot palm width and toe thickness of the left foot are measured as initial values.
Modeling starts at hour 0, 50 μL of 1% carrageenan is hypodermically injected into the bottom of left toe of transgenic TNF-luc mice, and the ankle swelling degree, foot palm swelling degree and toe swelling degree of each group of mice are measured with a vernier caliper at […], hour 1, hour 3, hour 5, hour 7, hour 9, hour 12, hour 24, hour 48, hour 72 and hour 96 respectively. Method for calculating toe swelling degree:
Swelling degree of left ankle (cm)=swelling thickness of left ankle during measurement−thickness of left ankle during initial measurement.
Swelling degree of left foot palm (cm)=swelling thickness of left foot palm during measurement−thickness of left foot palm during initial measurement.
Swelling degree of left toe (cm)=swelling thickness of left toe during measurement−thickness of left toe during initial measurement.

## mPEG-SC20k-Ile-Val-Arg-Arg-Ala-Asp-Arg-Ala-Ala-Val-Pro-Gly-Gly-Gly-Gly-Arg-Gly-Asp ({mPEG‑SC 20k}-IVRRADRAAVPGGGGRGD) [polypeptide III, No. 3]
IL-1β; 0.56 μmoL/L
  IL-1β content: 89.77 ± 7.22 pg/mL
  Inhibition rate: 90.93%
IL-1β; 1.12 μmoL/L
  IL-1β content: 35.17 ± 17.71 pg/mL
  Inhibition rate: 96.45%
IL-1β; 2.25 μmoL/L
  IL-1β content: 43.78 ± 10.16 pg/mL
  Inhibition rate: 95.58%
IL-1β; 4.50 μmoL/L
  IL-1β content: 32.04 ± 6.52 pg/mL
  Inhibition rate: 96.76%
IL-1β; 9.00 μmoL/L
  IL-1β content: 104.83 ± 2.44 pg/mL
  Inhibition rate: 89.41%
IL-6
  immunohistochemical score of IL-6 in spleen: 0.017±0.009
  immunohistochemical score of IL-6 in thymus: 0.040±0.021
[1]; 1 h
  left ankle swelling: 0.060 ± 0.045 cm
  left foot (palm) swelling: 0.101 ± 0.027 cm
  left toe swelling: 0.132 ± 0.054 cm
[1]; 3 h
  left ankle swelling: 0.079 ± 0.052 cm
  left foot (palm) swelling: 0.092±0.054 cm
  left toe swelling: 0.114 ± 0.025 cm
[1]; 5 h
  left ankle swelling: 0.117 ± 0.033 cm
  left foot (palm) swelling: 0.125 ± 0.035 cm
  left toe swelling: 0.146 ± 0.003 cm
[1]; 7 h
  left ankle swelling: 0.074 ± 0.014 cm
  left foot (palm) swelling: 0.116 ± 0.034 cm
  left toe swelling: 0.174 ± 0.065 cm
[1]; 9 h
  left ankle swelling: 0.061 ± 0.013 cm
  left foot (palm) swelling: 0.086 ± 0.008 cm
  left toe swelling: 0.124 ± 0.014 cm
[1]; 12 h
  left ankle swelling: 0.055 ± 0.018 cm
  left foot (palm) swelling: 0.091 ± 0.004 cm
  left toe swelling: 0.113 ± 0.027 cm
[1]; 24 h
  left ankle swelling: 0.066 ± 0.003 cm
  left foot (palm) swelling: 0.107 ± 0.010 cm
  left toe swelling: 0.136 ± 0.011 cm
[1]; 48 h
  left ankle swelling: 0.051±0.044 cm
  left foot (palm) swelling: 0.105 ± 0.010 cm
  left toe swelling: 0.126 ± 0.031 cm
[1]; 72 h
  left ankle swelling: 0.032±0.074 cm
  left foot (palm) swelling: 0.101 ± 0.016 cm
  left toe swelling: 0.094±0.034 cm
[1]; 96 h
  left ankle swelling: 0.032±0.042 cm
  left foot (palm) swelling: 0.076±0.006 cm
  left toe swelling: 0.084±0.040 cm

## Adalimumab [reference compound]
IL-6
  immunohistochemical score of IL-6 in spleen: 0.008±0.003
  immunohistochemical score of IL-6 in thymus: 0.030±0.031
[1]; 1 h
  left ankle swelling: 0.027 ± 0.018 cm
  left foot (palm) swelling: 0.042 ± 0.035 cm
  left toe swelling: 0.094 ± 0.054 cm
[1]; 3 h
  left ankle swelling: 0.008 ± 0.048 cm
  left foot (palm) swelling: 0.071 ± 0.016 cm
  left toe swelling: 0.115 ± 0.018 cm
[1]; 5 h
  left ankle swelling: 0.067 ± 0.010 cm
  left foot (palm) swelling: 0.092 ± 0.014 cm
  left toe swelling: 0.150 ± 0.028 cm
[1]; 7 h
  left ankle swelling: 0.064 ± 0.006 cm
  left foot (palm) swelling: 0.094 ± 0.011 cm
  left toe swelling: 0.126 ± 0.014 cm
[1]; 9 h
  left ankle swelling: 0.045 ± 0.004 cm
  left foot (palm) swelling: 0.088 ± 0.025 cm
  left toe swelling: 0.126 ± 0.021 cm
[1]; 12 h
  left ankle swelling: 0.050 ± 0.003 cm
  left foot (palm) swelling: 0.090 ± 0.031 cm
  left toe swelling: 0.114 ± 0.025 cm
[1]; 24 h
  left ankle swelling: 0.086 ± 0.031 cm
  left foot (palm) swelling: 0.132 ± 0.006 cm
  left toe swelling: 0.235 ± 0.134 cm
[1]; 48 h
  left ankle swelling: 0.105 ± 0.075 cm
  left foot (palm) swelling: 0.152 ± 0.074 cm
  left toe swelling: 0.264 ± 0.122 cm
[1]; 72 h
  left ankle swelling: 0.096 ± 0.051 cm
  left foot (palm) swelling: 0.150 ± 0.066 cm
  left toe swelling: 0.238 ± 0.113 cm
[1]; 96 h
  left ankle swelling: 0.076 ± 0.034 cm
  left foot (palm) swelling: 0.133 ± 0.061 cm
  left toe swelling: 0.174 ± 0.102 cm
